From patent US20220151962A1, “NOVEL INHIBITORS OF HISTONE DEACETYLASE 10” (Deutsches Krebsforschungszentrum, priority 2019, published 2022)

Key:
HDAC2 = target: T1, HDAC2 (Homo sapiens, UniProt Q92769); assay: HDAC-Glo I/II assay, HDAC2; assay type: biochemical; details: recombinant human HDAC2, HDAC-Glo; read-out: pIC50 HDAC2 Glo (converted)
T1 construct: purchased BPS Bioscience 50002

TwinStrep-GST-HDAC10 = target: T2, TwinStrep-GST-HDAC10 (Homo sapiens, UniProt Q969S8); assay: HDAC10 TR-FRET assay (Tubastatin-AF647-Tracer displacement); assay type: binding; details: TR-FRET, 60 min at rt; read-out: pIC50 HDAC10 FRET (converted)
T2 construct: made in house; host or cells: Sf21 insect cells (baculovirus, pFastBac1)
T2 sequence (Q969S8 1-669): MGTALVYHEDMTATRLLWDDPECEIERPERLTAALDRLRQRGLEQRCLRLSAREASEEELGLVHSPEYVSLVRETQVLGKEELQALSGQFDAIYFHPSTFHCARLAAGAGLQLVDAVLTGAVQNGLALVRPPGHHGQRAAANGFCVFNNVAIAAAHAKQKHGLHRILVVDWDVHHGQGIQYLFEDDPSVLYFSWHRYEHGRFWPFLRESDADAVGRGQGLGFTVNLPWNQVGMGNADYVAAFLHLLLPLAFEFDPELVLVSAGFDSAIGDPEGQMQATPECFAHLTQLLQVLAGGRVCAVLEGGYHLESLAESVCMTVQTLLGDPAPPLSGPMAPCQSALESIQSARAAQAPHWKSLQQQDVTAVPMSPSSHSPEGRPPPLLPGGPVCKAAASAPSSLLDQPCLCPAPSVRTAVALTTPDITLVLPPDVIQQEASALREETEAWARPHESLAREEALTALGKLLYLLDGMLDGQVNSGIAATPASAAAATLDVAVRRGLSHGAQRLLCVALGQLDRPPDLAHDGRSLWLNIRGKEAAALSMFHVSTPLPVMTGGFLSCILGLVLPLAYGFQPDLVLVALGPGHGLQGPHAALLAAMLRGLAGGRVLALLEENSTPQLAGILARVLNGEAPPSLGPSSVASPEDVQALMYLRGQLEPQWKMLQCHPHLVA

[1] = target: T3, HDAC6 (2nd catalytic domain)-nanoluciferase fusion in HeLa cells (Homo sapiens, UniProt Q9UBN7); assay: BRET intracellular target engagement assay, HDAC6
T3 sequence (Q9UBN7 482-800 limits assumed): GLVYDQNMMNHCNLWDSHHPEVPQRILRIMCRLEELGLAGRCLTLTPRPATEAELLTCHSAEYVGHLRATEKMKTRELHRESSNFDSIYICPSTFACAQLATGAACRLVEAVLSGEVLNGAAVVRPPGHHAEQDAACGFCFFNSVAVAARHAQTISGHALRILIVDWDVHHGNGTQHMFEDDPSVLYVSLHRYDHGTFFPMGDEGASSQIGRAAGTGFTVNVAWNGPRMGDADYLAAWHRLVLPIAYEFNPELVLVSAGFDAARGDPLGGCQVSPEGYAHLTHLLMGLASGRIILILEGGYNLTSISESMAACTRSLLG

HDAC8 = target: T4, HDAC8 (Homo sapiens, UniProt Q9BY41); assay: HDAC-Glo I/II assay, HDAC8; assay type: biochemical; parameters: purchased BPS Bioscience 50008; details: recombinant human HDAC8, HDAC-Glo; read-out: pIC50 HDAC8 Glo (converted)
T4 sequence (Q9BY41 1-377): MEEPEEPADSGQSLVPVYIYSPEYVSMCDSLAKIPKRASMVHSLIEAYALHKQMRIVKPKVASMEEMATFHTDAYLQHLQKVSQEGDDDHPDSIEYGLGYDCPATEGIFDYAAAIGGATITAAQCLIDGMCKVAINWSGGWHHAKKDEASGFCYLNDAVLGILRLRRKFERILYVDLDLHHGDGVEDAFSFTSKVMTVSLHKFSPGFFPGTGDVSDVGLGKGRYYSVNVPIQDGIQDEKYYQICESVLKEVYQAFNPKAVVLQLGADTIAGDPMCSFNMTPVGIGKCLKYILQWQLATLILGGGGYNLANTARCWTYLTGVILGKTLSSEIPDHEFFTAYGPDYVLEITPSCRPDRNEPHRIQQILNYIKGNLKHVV

[2] = target: T5, HDAC10-nanoluciferase fusion in HeLa cells (Homo sapiens, UniProt Q969S8); assay: BRET intracellular target engagement assay, HDAC10; details: for HDAC10/6 fold selectivity (BRET): HDAC10 over HDAC6, from BRET
T5 sequence (Q969S8 1-669): T2 sequence (Q969S8 1-669)

HDAC1 = target: T6, HDAC1 (Homo sapiens, UniProt Q13547); assay: HDAC-Glo I/II assay, HDAC1; assay type: biochemical; details: recombinant human HDAC1, HDAC-Glo; read-out: pIC50 HDAC1 Glo (converted)
T6 construct: purchased BPS Bioscience 50051
T6 sequence (Q13547 whole entry): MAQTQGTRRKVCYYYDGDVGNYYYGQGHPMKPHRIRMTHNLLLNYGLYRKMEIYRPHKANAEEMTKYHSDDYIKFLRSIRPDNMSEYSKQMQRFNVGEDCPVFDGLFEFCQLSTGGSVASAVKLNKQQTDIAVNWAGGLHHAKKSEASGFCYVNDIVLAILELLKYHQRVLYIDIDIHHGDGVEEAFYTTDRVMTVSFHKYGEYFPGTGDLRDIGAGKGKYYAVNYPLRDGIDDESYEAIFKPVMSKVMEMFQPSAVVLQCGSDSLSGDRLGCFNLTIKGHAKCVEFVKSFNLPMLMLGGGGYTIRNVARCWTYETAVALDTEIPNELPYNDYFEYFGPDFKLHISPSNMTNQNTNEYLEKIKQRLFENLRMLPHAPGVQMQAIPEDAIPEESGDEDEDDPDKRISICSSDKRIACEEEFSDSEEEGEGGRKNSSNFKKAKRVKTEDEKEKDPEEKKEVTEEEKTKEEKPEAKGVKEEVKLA

HDAC6 = target: T7, HDAC6 (Homo sapiens, UniProt Q9UBN7); assay: HDAC-Glo I/II assay, HDAC6; assay type: biochemical; details: recombinant human HDAC6, HDAC-Glo; read-out: pIC50 HDAC6 Glo (converted)
T7 construct: purchased BPS Bioscience 50006
T7 sequence (Q9UBN7 1-1215): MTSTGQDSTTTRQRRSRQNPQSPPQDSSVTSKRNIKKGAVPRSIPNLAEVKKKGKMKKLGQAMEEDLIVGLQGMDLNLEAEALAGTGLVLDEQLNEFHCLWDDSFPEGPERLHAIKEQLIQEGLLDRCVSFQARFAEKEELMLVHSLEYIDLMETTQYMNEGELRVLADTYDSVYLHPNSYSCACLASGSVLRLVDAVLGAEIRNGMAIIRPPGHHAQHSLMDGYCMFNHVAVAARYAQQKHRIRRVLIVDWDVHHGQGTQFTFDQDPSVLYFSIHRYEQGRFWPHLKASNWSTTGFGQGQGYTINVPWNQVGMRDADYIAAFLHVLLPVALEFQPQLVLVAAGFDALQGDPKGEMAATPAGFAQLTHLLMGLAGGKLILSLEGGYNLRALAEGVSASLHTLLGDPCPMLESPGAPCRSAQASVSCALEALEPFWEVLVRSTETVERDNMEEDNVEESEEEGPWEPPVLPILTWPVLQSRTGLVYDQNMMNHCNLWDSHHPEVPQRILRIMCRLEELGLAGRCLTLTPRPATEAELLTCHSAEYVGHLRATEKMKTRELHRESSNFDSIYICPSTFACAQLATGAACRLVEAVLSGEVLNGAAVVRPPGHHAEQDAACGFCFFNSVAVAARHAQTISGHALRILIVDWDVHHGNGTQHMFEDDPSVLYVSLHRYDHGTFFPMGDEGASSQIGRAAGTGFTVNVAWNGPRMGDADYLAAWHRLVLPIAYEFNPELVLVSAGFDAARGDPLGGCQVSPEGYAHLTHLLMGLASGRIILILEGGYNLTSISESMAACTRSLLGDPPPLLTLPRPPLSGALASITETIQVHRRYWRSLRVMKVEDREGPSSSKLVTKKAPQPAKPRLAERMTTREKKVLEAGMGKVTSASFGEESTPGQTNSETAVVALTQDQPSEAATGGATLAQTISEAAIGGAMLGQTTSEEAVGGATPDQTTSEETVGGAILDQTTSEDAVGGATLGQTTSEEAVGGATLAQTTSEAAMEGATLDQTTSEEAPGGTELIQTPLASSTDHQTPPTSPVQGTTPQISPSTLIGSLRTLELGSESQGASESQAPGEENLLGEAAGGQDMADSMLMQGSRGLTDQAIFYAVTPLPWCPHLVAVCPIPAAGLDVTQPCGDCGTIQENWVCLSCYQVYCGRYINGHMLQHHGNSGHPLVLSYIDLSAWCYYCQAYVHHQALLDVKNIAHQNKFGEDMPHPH

HDAC3/NcoR2 complex = target: T8, HDAC3/NcoR2 complex (Homo sapiens, UniProt O15379); assay: HDAC-Glo I/II assay, HDAC3/NcoR2 complex; assay type: biochemical; details: recombinant human HDAC3/NcoR2 complex, read-out: pIC50 HDAC3 Glo (converted)
T8 construct: purchased BPS Bioscience 50003
T8 sequence (O15379 whole entry): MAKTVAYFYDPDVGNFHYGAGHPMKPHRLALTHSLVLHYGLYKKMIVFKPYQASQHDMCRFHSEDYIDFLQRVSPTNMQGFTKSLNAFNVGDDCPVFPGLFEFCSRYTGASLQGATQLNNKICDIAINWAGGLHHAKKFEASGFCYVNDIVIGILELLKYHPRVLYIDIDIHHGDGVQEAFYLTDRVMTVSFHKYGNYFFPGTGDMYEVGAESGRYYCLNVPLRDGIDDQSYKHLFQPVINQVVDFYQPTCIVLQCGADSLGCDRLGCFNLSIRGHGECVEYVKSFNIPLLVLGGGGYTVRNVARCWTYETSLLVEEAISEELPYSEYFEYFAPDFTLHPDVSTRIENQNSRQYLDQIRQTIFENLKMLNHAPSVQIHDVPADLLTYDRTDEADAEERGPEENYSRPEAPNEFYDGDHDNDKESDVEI
T8 sequence (Q9Y618 395-489 partner limits assumed): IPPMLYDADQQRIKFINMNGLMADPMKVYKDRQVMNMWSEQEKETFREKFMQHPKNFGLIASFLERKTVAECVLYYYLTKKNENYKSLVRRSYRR

[3] = Stability on exposure to air (observation); assay type: physicochemical; details: especially in solution
[4] = Solubility in water (observation during purification); assay type: physicochemical

T1 sequence (Q92769 whole entry): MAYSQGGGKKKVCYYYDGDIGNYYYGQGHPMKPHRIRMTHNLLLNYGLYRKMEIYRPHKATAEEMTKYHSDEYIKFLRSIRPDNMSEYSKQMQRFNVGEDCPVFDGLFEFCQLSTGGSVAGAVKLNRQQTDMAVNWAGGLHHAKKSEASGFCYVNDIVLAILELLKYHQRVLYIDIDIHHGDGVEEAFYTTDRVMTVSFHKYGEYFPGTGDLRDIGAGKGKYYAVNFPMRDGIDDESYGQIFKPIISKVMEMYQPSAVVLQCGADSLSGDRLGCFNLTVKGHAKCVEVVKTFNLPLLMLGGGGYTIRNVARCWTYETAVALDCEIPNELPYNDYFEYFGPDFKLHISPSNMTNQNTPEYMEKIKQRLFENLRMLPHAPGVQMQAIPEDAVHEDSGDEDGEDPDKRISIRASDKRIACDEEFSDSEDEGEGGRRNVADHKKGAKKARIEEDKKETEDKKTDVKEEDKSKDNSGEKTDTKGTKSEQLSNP

Structure (SMILES)	IC50 (HDAC2) [µM]	IC50 (TwinStrep-GST-HDAC10) [µM]	IC50 [1] [µM]	IC50 (HDAC8) [µM]	IC50 [2] [µM]	HDAC10/6 fold selectivity (BRET) [2] [fold]	IC50 (HDAC1) [µM]	IC50 (HDAC6) [µM]	IC50 (HDAC3/NcoR2 complex) [µM]	stability when exposed to air [3]	solubility in water [4]
CC(C)N(CCCC(=O)NO)CCC(=O)Nc1ccccc1 [DKFZ-715, 4-(Isopropyl(3-oxo-3-(phenylamino)propyl)amino)-N-hydroxybutanamide]	> 200	0.631	> 39.8	5.01	2	>21	398	12.6	< 200		
CCCCN(CCCC(=O)NO)CCC(=O)Nc1ccccc1 [DKFZ-717, 4-(Butyl(3-oxo-3-(phenylamino)propyl)amino)-N-hydroxybutanamide]	> 200	0.631	> 39.8	7.94	1.58	38	79.4	5.01	~200		
CN(CCNC(=O)CS)CCNC(=O)c1ccccc1 [DKFZ-825, N-(2-((2-(2-Mercaptoacetamido)ethyl)(methyl)amino)ethyl)benzamide]	12.6	0.0126		> 100			12.6	3.98	> 100	form the disulfide when exposed to air	
O=C(CCCN(CCC(=O)Nc1ccccc1)Cc1ccccc1)NO [DKFZ-718, 4-(Benzyl(3-oxo-3-(phenylamino)propyl)amino)-N-hydroxybutanamide]	~126	2	10	2.51	0.501	25	25.1	1	~100		
CCCN(CCCC(=O)NO)CCC(=O)Nc1ccccc1 [DKFZ-716, 4-(Propyl(3-oxo-3-(phenylamino)propyl)amino)-N-hydroxybutanamide]	> 200	0.316	> 39.8	7.94	1	~366	79.4	5.01	~200		
COc1ccc(C(=O)NCCN(C)CCCC(=O)NO)c2ccccc12 [DKFZ-774, N-(2-((4-(Hydroxyamino)-4-oxobutyl)(methyl)amino)ethyl)-4-methoxy-1-naphthamide]	12.6	0.00316	~12.6	1.26	0.0316	398	6.31	2.51	> 100		
O=C(CCCN(CCC(=O)Nc1ccccc1)C1CC1)NO [DKFZ-724, 4-(Cyclopropyl(3-oxo-3-(phenylamino)propyl)amino)-N-hydroxybutanamide]	> 200	0.251	> 39.8	2	0.398	>110	39.8	3.16	126		
C[N+](C)(CCCC(=O)[N-]O)CCNC(=O)c1ccccc1 [DKFZ-777, (4-((2-Benzamidoethyl)dimethylammonio)butanoyl)(hydroxy)amide]	> 100	0.398	> 39.8	> 100	31.6	>1	> 100	> 100	> 100		poorly soluble in water
O=C(CC1CN(CCC(=O)Nc2ccccc2)C1)NO [DKFZ-770, 3-(3-(2-(Hydroxyamino)-2-oxoethyl)azetidin-1-yl)-N-phenylpropanamide]	79.4	0.158	> 39.8	20	2	>20	50.1	6.31	> 100		
